Test results published in patent publication US20250145573A1, “COMPOSITION FOR PREVENTING, ALLEVIATING OR TREATING CANCER” (CKP Therapeutics, Inc., priority 2023, published 2025).

How the values were obtained:
[1] = tested on: YUMC-S-P1, YUMC-P1-main, YUMC-P2-main cells; experiment: Cell viability assay (MTT), anti-cancer drug-sensitive and main mass PTC cells; type: cell-based, human
Procedure: (§1) Cell viability was measured using the MTT (3-(4,5-Dimethylthiazol-2-yl)-2,5-Diphenyltetrazolium Bromide) assay, cells were seeded in 96-well plates at 7×10^3 cells per well and incubated overnight to achieve 80% confluency. The detailed protocol can be found in our previous article. Data were expressed as a percentage of the signal observed in vehicle-treated cells and are shown as the means±SEM of triplicate experiments.
(§2) To evaluate to the anti-cancer efficacy of CKP1 and 2, combinatorial strategies with sorafenib or lenvatinib, we carried out cell viability assays for anti-cancer drug-sensitive (YUMC-S-P1) and main mass or lymph node metastasis PTC (YUMC-P1-main or YUMC-P2-main or YUMC-P1-meta or YUMC-P2-meta) cells treated with sorafenib or levatinib each agent treated alone or with CKP1 and CKP2.

[2] = tested on: metastatic PTC (YUMC-P1-meta or YUMC-P2-meta) cells; experiment: Cell viability assay (MTT), metastatic PTC cells; type: cell-based, human
Procedure: as §1, §2

[3] = tested on: YUMC-S-P1 cells xenograft; experiment: Human PTC cell xenograft, anti cancer drug-sensitive PTC cells; type: in vivo, mice
Procedure: (§3) All experiments were approved by the Animal Experiment Committee of Yonsei University. YUMC-S-P1, YUMC-P1 and -P2-main or meta patient-derived PTC cells (4.4×10^6 cells/mouse) were cultured in vitro and then injected subcutaneously into the upper left flank region of female NOD/Shi-scid, IL-2Rγ KOJic (NOG) mice. After 15 days, tumor-bearing mice were grouped randomly (n=10 per group) and treated SERCA inhibitors, thapsigargin (25 mg/kg), candidate 33 (12 mg/kg) and 36 (12 mg/kg, p.o.) with 80 mg/kg sorafenib (p.o.) either alone or combination. Tumor size was measured every three day using calipers. Tumor volume was estimated using the following formula: L×S2/2 (L, longest diameter; S, shortest diameter). Animals were maintained under specific pathogen-free conditions. All experiments were approved by the Animal Experiment Committee of Yonsei University.
(§4) We developed mouse xenograft models using anti cancer drug-sensitive (YUMC-S-P1) and metastatic PTC (YUMC-P1 and -P2-meta) cells and evaluated the anticancer effect of monotherapy with sorafenib, lenvatinib or with SERCA inhibitors (thapsigargin, CKP1 and 2) as well as that of the combination therapy between sorafenib or lenvatinib and a SERCA inhibitor. […] No significant changes in resected tumor weight were found between any of the treatment groups (FIG. 5a to 5e).

[4] = tested on: metastatic PTC cells (YUMC-P1 or -P2-meta) xenograft; experiment: Human PTC cell xenograft, metastatic PTC cells; type: in vivo, mice; settings: for tumor shrinkage: YUMC-P1 or -P2-meta xenograft; for tumor shrinkage (summary statement): xenograft tumor model developed using patient-derived antineoplastic-resistant cells
Procedure: as §3, §4

[5] = SERCA inhibitor alone treatment, whole PTC cells
[6] = in combination with sorafenib or lenvatinib, dose-dependent, YUMC-S-P1, YUMC-P1-main, YUMC-P2-main
[7] = combinatorial with sorafenib or lenvatinib treatment, dose-dependent, YUMC-P1-meta or YUMC-P2-meta
[8] = SERCA inhibitor with sorafenib or lenvatinib
[9] = combination of sorafenib or lenvatinib with SERCA inhibitor
[10] = sorafenib or lenvatinib without CKP1 and CKP2, dose-dependent, YUMC-S-P1, YUMC-P1-main, YUMC-P2-main
[11] = sorafenib or lenvatinib treatment alone, YUMC-P1-meta or YUMC-P2-meta
[12] = sorafenib or lenvatinib without SERCA inhibitors

Compound	cell viability [1, 5]	cell viability [1, 6]	cell viability [2, 5]	cell viability [2, 7]	tumor size [3, 8]	tumor shrinkage [4, 9]	tumor shrinkage (summary statement) [4]	cell viability [1, 10]	cell viability [2, 11]	tumor size [3, 12]	tumor shrinkage ([4]; monotherapy)
Cc1cc(C=Nc2ccc(Cl)cc2)c2cccc(C)c2n1 [CKP1]	did not critical influence	significantly decreased	did not critical influence	remarkably restrained the viability	decreased significantly tumor size	substantial tumor shrinkage	significant tumor shrinkage				
Cc1cc(N=Cc2ccc(Cl)cc2)c2cccc(C)c2n1 [CKP2]	did not critical influence	significantly decreased	did not critical influence	remarkably restrained the viability	decreased significantly tumor size	substantial tumor shrinkage	significant tumor shrinkage				
COc1cc2nccc(Oc3ccc(NC(=O)NC4CC4)c(Cl)c3)c2cc1C(N)=O [lenvatinib, reference compound]								significantly decreased	no remarkably influenced	decreased significantly tumor size	did not induce significant tumor shrinkage
CNC(=O)c1cc(Oc2ccc(NC(=O)Nc3ccc(Cl)c(C(F)(F)F)c3)cc2)ccn1 [sorafenib, reference compound]								significantly decreased	no remarkably influenced	decreased significantly tumor size	did not induce significant tumor shrinkage
C/C=C(/C)C(=O)O[C@H]1C(C)=C2[C@H]([C@@H]1OC(=O)CCCCCCC)[C@@](C)(OC(C)=O)C[C@H](OC(=O)CCC)[C@@]1(O)[C@H]2OC(=O)[C@@]1(C)O [thapsigargin, reference compound]	did not critical influence		did not critical influence	remarkably restrained the viability	decreased significantly tumor size	substantial tumor shrinkage					
